Source: patent publication US8937050B2, “Methods and compositions for treatment of autism” (The Johns Hopkins University, priority 2011, dated 2015)
“Also recorded” adds a separate entry of the source.

Columns and labels:
APG8 (LC3) = settings: normal human fibroblasts, 4 hrs.-24 hrs.; FIG. 5B
Experimental: Cell lysates were collected in mammalian protein extraction reagent (m-PER; Thermo Scientific, Rockford, Ill.) plus 1×protease inhibitor (Sigma-Aldrich) and 1×Halt phosphatase inhibitor (Thermo Scientific). Denatured SDS-PAGE and immunoblot analyses were performed using the following antibodies: phosphorylated JNK and β-actin from Santa Cruz Biotechnology, HSP70, HSP90, BIP, phosphorylated eIF2α, and XBP1 from Cell Signaling, APG8 (Abgent, San Diego, Calif.), and SOD2 (Stressgen, Ann Arbor, Mich.). Quantitation was performed using a Fuji Intelligent Dark box II, FUJI LAS-1000 Lite software and Image Gauge v4.22 software (Tokyo, Japan).
Actin (43 kDa) was used as a loading control. UT denotes untreated cells.

Diabetes = settings: Ozcan et al., 2006, Xue et al., 2008, Sun et al.; cited from earlier work
K562 cells [1] = assay: Flow cytometric analysis of mitochondrial mass (Mitotracker); assay type: cell-based, human; settings: K562 cells, 1.2 mM SB or 100 μM HU; FIG. 1C
Experimental: (§1) Fibroblasts (70-95% confluent) were treated with 5 mM 4PBA (1 mM for JNK inhibition studies), 600 μM HU, 200 nM TSA, or 5 μM SFN unless otherwise specified.
(§2) K562 cells were incubated with 50 nM Mitotracker Green FM, 300 nM Mitotracker Deep Red 633 (Invitrogen), or PBS as a negative control for 15 min at 37° C. or stained with anti-Pex14 using Caltag Fix and Perm reagents (Invitrogen) following the manufacturer's instructions. Stained cells were suspended in 0.5 mL of 1% paraformaldehyde/PBS and subjected to flow cytometric analysis (FACScan machine, Becton Dickinson, Franklin Lakes, N.J.).
(§3) K562 cells were treated with SB and HU for four to ten days. […] (n≧3 unless otherwise noted).
To determine whether the induction of mitochondrial biogenesis by SB or HU treatment was necessary for the induction of HbF-producing cell production, K562 cells were treated with SB or HU in the presence or absence of AA. […] After two to four days of drug treatment with or without AA, mitochondrial mass was measured using Mitotracker, a mitochondrial stain. Fold change (drug treated/control) is shown. […] After four days of drug treatment with or without AA, cells were stained with DAF. The relative number of cells producing HbF (DAF stained cells) were plotted. […] After eight to ten days of drug treatment, peroxisome proliferation was measured using an antibody against the peroxisomal membrane protein, PEX14 and a FITC-labeled secondary antibody. Fold change (drug treated/control) is shown. In FIGS. 1C, 1D, and 1E, the * represents a statistically significant increase in a measurement between drug treated and control samples or a statistically significant decrease in a measurement between drug treated and drug treated samples in the presence of AA (p≦0.05) (Bars=SEM). This finding indicates dependence of the beneficial effect (i.e., elevated HbF levels) on induced mitochondrial biogenesis. Thus, the therapeutic effects observed in SCD may involve the pharmacological induction of mitochondrial biogenesis by SB or HU. […]

autism = assay: Placebo-controlled study of HU in male adolescents and adults with autism; assay type: in vivo, human; settings: HU at low doses
Experimental: Administration of hydroxyurea (HU) in adolescents and adults with autism is evaluated in a study designed to ensure safety and obtain efficacy data. HU is chosen based on its effects on the stress proteome in vitro and based on clinical observations of improvements (e.g., social responsiveness) in persons with autism during fever. (Curran et al., 2007).
The hybrid design of the study incorporates double masking, placebo control, and randomization to enhance the robustness of early outcome data. […]
Forty-five male adolescents (13-18 years) and adults (19-30 years) are randomly assigned to receive either HU (n=30, at 2 month escalating intervals: 10, 15 and 20 mg/kg/day) or placebo (n=15). Quantitative autism traits are assessed using the ADI-R, Social Responsiveness Scale (child and adult forms), Clinical Global Impression Scale (CGI) and Autism Behavior Checklist (ABC). […]
The effect of HU in autism is evaluated to ensure safety and efficacy (Piantadosi et al., 2005). […]
Male adolescent (n=15, ages 13-18 years) and adults (n=30, ages 19-30) are randomly assigned to receive either HU (at 2 month escalating intervals: […]) or placebo. Quantitative autism traits are assessed using the ADI-R, Social Responsiveness Scale (child and adult forms) (Constantino et al., 2005), Clinical Global Impressions Scale (CGI), and Autism Behavior Checklist (ABC). […]

K562 cells [2] = assay: Flow cytometric analysis of peroxisome proliferation (PEX14); assay type: cell-based, human; settings: eight to ten days, FIG. 1E
Experimental: as §1, §2, §3
To determine whether the induction of mitochondrial biogenesis by SB or HU treatment was necessary for the induction of HbF-producing cell production, K562 cells were treated with SB or HU in the presence or absence of AA. […] After two to four days of drug treatment with or without AA, mitochondrial mass was measured using Mitotracker, a mitochondrial stain. Fold change (drug treated/control) is shown. […] After four days of drug treatment with or without AA, cells were stained with DAF. […] After eight to ten days of drug treatment, peroxisome proliferation was measured using an antibody against the peroxisomal membrane protein, PEX14 and a FITC-labeled secondary antibody. […]

SMILES | proportion of LC3-II to LC3-I (APG8 (LC3)) | Therapeutic Effect (Diabetes) | mitochondrial mass (K562 cells [1]) | clinical function in adolescents and adults with well characterized autism (autism) | peroxisomal proliferation (K562 cells [2])
C[S@@+]([O-])CCCCN=C=S [SFN, 1-isothiocyanato-4R-(methylsulfinyl)butane] | significantly increased | hyperglycemia normalization; also recorded: improve glucose utilization | – | – | –
NC(=O)NO [HU, hydroxyurea] | – | – | significantly increased | improved clinical function | significantly increased
